Patent publication US20250019357A1, “[…] MORPHIC FORMS AND MIXTURES FOR THE TREATMENT OF MENTAL DISORDERS OR MENTAL ENHANCEMENT” (TACTOGEN INC, priority 2021, published 2025)
Structures can show the parent of a compound that is named as a salt. Where two headings read alike, the source gives them in different places.

Experiments:
5-HT1BR = 5-HT1BR (Homo sapiens (Human), UniProt P28222); assay type: cell-based; settings: for Hill Coef.: 5-HT1BR agonist curve; for EC50: Table 3
[1] = Scale-up and solid-state stability study; assay type: physicochemical; settings: ~10 mg staged at 40° C./75% RH for 1 day, analyzed by PXRD
Experimental: Scale up study of selected S-5-MAPB salts (Patterns 1A, 2A, and 10A) to −70 mg was completed. […] All three samples were then tested for their solid-state stability as shown below in Table 17. (API=5-MAPB HCl)
Scale up study of selected salts (S-5-MAPB Patterns 1A, 4A, and 8A) to −250 mg completed. Patterns 1A, 4A, and 8A were all scaled up successfully. All three samples were then tested for their solid-state stability as shown below in Table 19. (API=S-5-MAPB Pure Enantiomer)

SERT [2] = target: T1, SERT (Rattus norvegicus (Rat), UniProt P31652); experiment: In vitro rat synaptosome serotonin uptake inhibition assay (Examples 9, 58); assay type: biochemical; settings: rat synaptosomes
Description: (§1) FIG. 7A is a graph showing results from an in vitro rat synaptosome serotonin uptake inhibition assay. […] Details and procedural information for this assay are described in Example 9. The x-axis is the log [dose] concentration measured in molar and the y-axis is the [^3H]-labeled 5-HT reuptake measured in percent.
as §1, with “176” for “7A”, “58.” for “9.”, “x-axis” for “x-axis is”, “concentration is” for “concentration”, “Molar units” for “molar”, “percent of maximum produced by the comparison releaser.” for “percent.”

SERT [3] = target: T1, SERT; experiment: In vitro rat synaptosome serotonin release (efflux) assay (Examples 9, 58); assay type: biochemical; settings: rat synaptosomes
Description: as §1, with “7B” for “7A”, “release” for “uptake inhibition”, “release” for “reuptake”
as §1, with “177” for “7A”, “release” for “uptake inhibition”, “58.” for “9.”, “x-axis” for “x-axis is”, “release” for “reuptake”

[4] = target: human 5-HT transporter (hSERT) (Homo sapiens (Human), UniProt P31645); experiment: Human serotonin transporter  assay ([3H]imipramine radioligand, CHO cells); assay type: binding
Experimental: EXAMPLE 8: Human Serotonin Transporter (SERT, SLC6A4) Functional Antagonist Uptake Assay
Benzofuran derivatives were evaluated for inhibiting the human 5-HT transporter (hSERT) as expressed in CHO cells using an antagonist radioligand assay (Tatsumi, M. et al. (1999), Eur. J. Pharmacol., 368: 277-283). […] Test compounds were assayed in three trials at […], and 0.94868 μM.
EXAMPLE 57: Human Serotonin Transporter (SERT, SLC6A4) Functional Antagonist Uptake Assay

[5] = target: serotonin (5-HT) transporter (SERT) (Rattus norvegicus (Rat), UniProt P31652); experiment: Rat synaptosome SERT uptake inhibition assay ([3H]5-HT)
[6] = Human self-reported effects of non-racemic 5-MAPB (Good, Bad, Open ratings); assay type: in vivo
Experimental: The effects of non-racemic 5-MAPB HCl were tested by a healthy human individual at four different ratios of enantiomers plus the racemate as a control: • 54 mg S and 0 mg R (100% S) • 47 mg S and 7 mg R (about 87% S) • 36 mg S and 18 mg R (about 67% S) • 27 mg S and 27 mg R (about 50% S) • 7 mg S and 47 mg R (about 13% S)
Two trials were carried out at each ratio, except for 13% S where only one was conducted. Trials were at least 72 h apart.
5-MAPB HCl was dissolved in 1.5 ml distilled water and consumed in two halves, separated by 1 hour. Starting at 3 hours after administration, tablets of 250 mg ascorbic acid and capsules of 300 mg alpha lipoic acid were taken ad libitum (approximately every hour for a total of 4 administrations).
Measurements were made approximately every 2 hours until post 6 hours and the maximum ratings per session were analyzed. Additionally, an index of good drug effects versus emotional openness, calculated as (Open−Good)/(200, the theoretical maximum of Open+ Good), was constructed at each time point and the maximum analyzed. In healthy volunteers, Good Ratings can be considered a predictor of abuse liability. Accordingly, this index can be used as an indicator of the balance of a therapeutic effect (emotional openness) vs abuse liability.
Historic data of two trials 50 mg RS-5-MAPB Cl from the same individual were also included in the analysis for comparison.
Table 24 below indicates maximums for individual measures and for the open vs good index, averaged from all sessions (N=2, except for 13% S-5-MAPB where N=1). Qualitatively, all conditions produced subtle emotional effects, including decreases in negative affect and increases in stability of mood, without sensory distortion.

[7] = target: dopamine transporter (DAT) (Rattus norvegicus (Rat), UniProt P23977); experiment: Rat synaptosome DAT release assay ([3H]MPP+); settings: read-out: dopamine Emax (maximum dopamine increase relative to reference drug)
[8] = target: Human Trace Amine Associated Receptor (hTAAR1) (Homo sapiens (Human), UniProt Q96RJ0); experiment: hTAAR1 agonist assay (DiscoverX cAMP Hunter); assay type: cell-based; settings: for hTAAR1 maximum detected effects: seven concentrations between 0.05692 and 60 μM
[9] = S-5-MAPB salt scale-up (~250 mg, API=S-5-MAPB Pure Enantiomer)
[10] = Cheng Prusoff equation, read-out: SERT Ki
[11] = read-out: Inhibition of [3H]5-HT Uptake at SERT IC50, rat brain synaptosomes, 5 nM [3H]5-HT
[12] = one healthy human, 54 mg total 5-MAPB HCl oral in two halves 1 hour apart, session maximum averaged (N=2, 13% S N=1)
[13] = S-5-MAPB salt scale-up (~70 mg, API=5-MAPB HCl)

## CNC(C)C(=O)c1ccc2occc2c1 (racemic) [rac-BK-5-MAPB, 1-(benzofuran-5-yl)-2-(methylamino)propan-1-one hydrochloride]
5-HT1BR
  Hill Coef.: 0.91

## CCC(NC)C(=O)c1ccc2occc2c1 (racemic) [rac-BK-5-MBPB, 1-(benzofuran-5-yl)-2-(methylamino) butan-1-one]
5-HT1BR
  Hill Coef.: 1.01

## CNC(C)C(=O)c1ccc2ccoc2c1 (racemic) [rac-BK-6-MAPB, 1-(benzofuran-6-yl)-2-(methylamino)propan-1-one hydrochloride]
5-HT1BR
  Hill Coef.: 0.99

## CN[C@@H](C)Cc1ccc2occc2c1.O=P(O)(O)O (single isomer, unassigned) [H3PO4 (Pattern 4A), 5-MAPB Enantiomer H3PO4]
[1]; [9]
  PXRD Pattern (40° C./75% RH sample): 4A

## CN[C@@H](C)Cc1ccc2occc2c1.O=C(O)C(=O)O (single isomer, unassigned) [Oxalic (Pattern 8A), 5-MAPB Enantiomer oxalic acid]
[1]; [9]
  PXRD Pattern (40° C./75% RH sample): 8A

## CNC(C)C(=O)c1ccc2occc2c1 (single isomer, unassigned; (+)) [(+)-Bk-5-MAPB, 1-(benzofuran-5-yl)-2-(methylamino) propan-1-one]
SERT [2]
  [3H]-labeled 5-HT reuptake (serotonin uptake inhibition): rapidly increases extracellular serotonin by inhibiting reuptake
SERT [3]
  [3H]-labeled 5-HT release: rapidly increases extracellular serotonin by stimulating release
5-HT1BR
  Hill Coef.: 1.05

## CNC(C)C(=O)c1ccc2ccoc2c1 (single isomer, unassigned; (+)) [(+)-Bk-6-MAPB, 1-(benzofuran-6-yl)-2-(methylamino) propan-1-one]
[4]
  IC50: 110000 nM
  Ki: 51000 nM
SERT [2]
  [3H]-labeled 5-HT reuptake (serotonin uptake inhibition): rapidly increases extracellular serotonin by inhibiting reuptake
SERT [3]
  [3H]-labeled 5-HT release: rapidly increases extracellular serotonin by stimulating release

## CCC(NC)C(=O)c1ccc2occc2c1 (single isomer, unassigned; (-)) [(−)-BK-5-MBPB, 1-(benzofuran-5-yl)-2-(methylamino) butan-1-one]
5-HT1BR
  Hill Coef.: 1.6241

## CNC(C)C(=O)c1ccc2occc2c1 (single isomer, unassigned; (-)) [(−)-Bk-5-MAPB, 1-(benzofuran-5-yl)-2-(methylamino) propan-1-one]
SERT [2]
  [3H]-labeled 5-HT reuptake (serotonin uptake inhibition): rapidly increases extracellular serotonin by inhibiting reuptake
SERT [3]
  [3H]-labeled 5-HT release: rapidly increases extracellular serotonin by stimulating release
5-HT1BR
  Hill Coef.: 1.5

## CNC(C)C(=O)c1ccc2ccoc2c1 (single isomer, unassigned; (-)) [(−)-Bk-6-MAPB, 1-(benzofuran-6-yl)-2-(methylamino) propan-1-one]
SERT [2]
  [3H]-labeled 5-HT reuptake (serotonin uptake inhibition): rapidly increases extracellular serotonin by inhibiting reuptake
SERT [3]
  [3H]-labeled 5-HT release: rapidly increases extracellular serotonin by stimulating release
5-HT1BR
  Hill Coef.: 0.8339

## CN[C@H](C)Cc1ccc2ccoc2c1 (stereo in doubt) [Pattern R-6-MAPB, 1-(benzofuran-6-yl)-N-methylpropan-2-amine]
[4]; [10]
  Ki: 11000 nM
[5]; [11]
  IC50: 623 ± 31.2 nM
SERT [2]
  [3H]-labeled 5-HT reuptake (serotonin uptake inhibition): rapidly increases extracellular serotonin by inhibiting reuptake
SERT [3]
  [3H]-labeled 5-HT release: rapidly increases extracellular serotonin by stimulating release
5-HT1BR
  Hill Coef.: 1.14
  EC50: 1480 nM

## CN[C@@H](C)Cc1ccc2occc2c1 [100% S-5-MAPB]
[6]; healthy human individual, 54 mg S and 0 mg R
  duration of effects: effects of less duration than conditions that included the R-enantiomer
[6]; [12]
  Bad (bad drug effects), maximum 0-100 rating: 1%
  Good (good drug effects), maximum 0-100 rating: 55%
  Open (emotional openness), maximum 0-100 rating: 65%

## Br.CNC(C)Cc1ccc2occc2c1 (stereo not shown) [HBr (Pattern 2A), 5-MAPB HBr]
[1]; [13]
  PXRD Pattern (40° C./75% RH sample): Pattern 2B

## CNC(C)Cc1ccc2occc2c1.Cl (stereo not shown) [HCl (Pattern 1A), 5-MAPB HCl]
[1]; [13]
  PXRD Pattern (40° C./75% RH sample): Pattern 1A
[1]; [9]
  PXRD Pattern (40° C./75% RH sample): 1A

## CNC(C)Cc1ccc2occc2c1.O=C(O)/C=C\C(=O)O (stereo not shown) [Maleic (Pattern 10A), 5-MAPB maleic acid]
[1]; [13]
  PXRD Pattern (40° C./75% RH sample): 10A

## CN[C@H](C)Cc1ccc2occc2c1 [Pattern R-5-MAPB, R-5-MAPB]
[4]; [10]
  Ki: 1200 nM
[5]; [11]
  IC50: 150 ± 8.6 nM
SERT [2]
  [3H]-labeled 5-HT reuptake (serotonin uptake inhibition): rapidly increases extracellular serotonin by inhibiting reuptake
SERT [3]
  [3H]-labeled 5-HT release: rapidly increases extracellular serotonin by stimulating release
5-HT1BR
  Hill Coef.: 1.13
  EC50: 981 nM

## CC[C@H](Cc1ccc2ccoc2c1)NC [Pattern R-6-MBPB, R-6-MBPB]
[5]
  IC50: 702 ± 262 nM
[7]
  Emax: ~25%
[8]
  hTAAR1 maximum detected effects: 0.9%

## CN[C@@H](C)Cc1ccc2occc2c1 [Pattern S-5-MAPB, S-5-MAPB]
[4]; [10]
  Ki: 1500 nM
[5]; [11]
  IC50: 60.4 ± 2.8 nM
SERT [2]
  [3H]-labeled 5-HT reuptake (serotonin uptake inhibition): rapidly increases extracellular serotonin by inhibiting reuptake
SERT [3]
  [3H]-labeled 5-HT release: rapidly increases extracellular serotonin by stimulating release
5-HT1BR
  Hill Coef.: 1.08
  EC50: 161 nM

## CN[C@@H](C)Cc1ccc2ccoc2c1 [Pattern S-6-MAPB, S-6-MAPB]
[4]; [10]
  Ki: 3100 nM
[5]; [11]
  IC50: 90.9 ± 5.9 nM
SERT [2]
  [3H]-labeled 5-HT reuptake (serotonin uptake inhibition): rapidly increases extracellular serotonin by inhibiting reuptake
SERT [3]
  [3H]-labeled 5-HT release: rapidly increases extracellular serotonin by stimulating release
5-HT1BR
  Hill Coef.: 1.21
  EC50: 102 nM

## CC[C@@H](Cc1ccc2ccoc2c1)NC [Pattern S-6-MBPB, S-6-MBPB]
[5]
  IC50: 217 ± 45.8 nM
[7]
  Emax: 72%
[8]
  hTAAR1 maximum detected effects: 0.6%

## CCC(Cc1ccc2occc2c1)NC (stereo not shown) [RS-5-MBPB, 1-(benzofuran-5-yl)-N-methylbutan-2-amine]
SERT [2]
  [3H]-labeled 5-HT reuptake (serotonin uptake inhibition): rapidly increases extracellular serotonin by inhibiting reuptake
SERT [3]
  [3H]-labeled 5-HT release: rapidly increases extracellular serotonin by stimulating release

## NCCc1ccc(O)cc1 [p-Tyramine, reference compound]
[8]; positive control
  EC50: 1140 nM
  hTAAR1 Hill constant: 0.7453
